Results on 46 molecules are retold here after US9963444B2, “N-acylethanolamine hydrolyzing acid amidase (NAAA) inhibitors and their use thereof” (Northeastern University, priority 2014, dated 2018).

For the first assay, the target named is hNAAA (Homo sapiens (Human), UniProt Q02083). The assay is described as follows: Fluorescence-based NAAA inhibition assay with fluorogenic substrate PAMCA.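 Note: compound preincubated 15 min at room temperature with hNAAA, then PAMCA added at 5 µM, reacted 120 min at 37 °C, AMC release read by fluorescence (ex 360, em 460 nm).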
hNAAA, sequence (Q02083 29-125): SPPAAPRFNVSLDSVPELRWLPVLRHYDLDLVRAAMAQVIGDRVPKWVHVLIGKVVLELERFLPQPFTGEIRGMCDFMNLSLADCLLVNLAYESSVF
hNAAA, sequence (Q02083 126-359): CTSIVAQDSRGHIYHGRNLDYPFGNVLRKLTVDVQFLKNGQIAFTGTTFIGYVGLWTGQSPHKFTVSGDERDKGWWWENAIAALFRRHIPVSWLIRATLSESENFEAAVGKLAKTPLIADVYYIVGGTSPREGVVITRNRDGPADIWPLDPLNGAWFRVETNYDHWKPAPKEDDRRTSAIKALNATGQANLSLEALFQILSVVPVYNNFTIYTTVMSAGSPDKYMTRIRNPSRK
Settings: not given
In turn, `N#CN1CC(OC(c2ccccc2)c2ccc(Br)cc2)C1` (stereo not shown) [Example 99, 3-((4-Bromophenyl)(phenyl)methoxy)azetidine-1-carbonitrile] gave a half-maximal inhibitory concentration (IC50) of 0.01 to 0.1 µM.
Still for that read-out and setting: to `N#CN1CC(OCc2ccc(-c3ccc4c(c3)OCCO4)cc2)(c2ccccc2)C1` [Example 98, 3-((4-(2,3-Dihydrobenzo[b][1,4]dioxin-6-yl)benzyl)oxy)-3-phenylazetidine-1-carbonitrile] belongs 0.01 to 0.1 µM; to `Cc1ccc(-c2ccc(CO[C@H]3C[C@H](N=C=S)C3)cc2)cc1` [Example 28, 4-(((1R,3R)-3-Isothiocyanatocyclobutoxy)methyl)-4′-methyl-1,1′-biphenyl], 0.11 to 1 µM.
In turn, `N#CN1CC(OCc2ccc(-c3ccccc3)cc2)C1` [Example 64, 3-([1,1′-Biphenyl]-4-ylmethoxy)azetidine-1-carbonitrile] showed an IC50 of 0.01 to 0.1 µM.
As for `Cc1ccc(-c2ccc(COC3CN(C#N)C3)cc2)cc1` [Example 76, 3-((4′-Methyl-[1,1′-biphenyl]-4-yl)methoxy)azetidine-1-carbonitrile], the IC50 is 0.01 to 0.1 µM.
On the same count and under the same terms, with `N#Cc1ccccc1-c1cc(Oc2ccccc2)ccc1COC1CN(C#N)C1` [Example 93, 3-((2′-Cyano-5-phenoxy-[1,1′-biphenyl]-2-yl)methoxy)azetidine-1-carbonitrile] the figure was 0.01 to 0.1 µM; with `N#CN1CC(OCc2ccc(-c3cc(C(F)(F)F)cc(C(F)(F)F)c3)cc2)C1` [Example 71, 3-((3′,5′-Bis(trifluoromethyl)-[1,1′-biphenyl]-4-yl)methoxy)azetidine-1-carbonitrile], 0.01 to 0.1 µM.
As to `S=C=NCCCCCCCCCCc1ncccn1` [Example 20, 2-(10-Isothiocyanatodecyl)pyrimidine], the IC50 is 0.01 to 0.1 µM.
The same measure, in the same setting: to `Cn1cc(-c2ccc(C(OC3CN(C#N)C3)c3ccccc3)cc2)cn1` (stereo not shown) [Example 102, 3-((4-(1-Methyl-1H-pyrazol-4-yl)phenyl)(phenyl)methoxy)azetidine-1-carbonitrile] belongs 0.01 to 0.1 µM; to `COc1ccc(-c2ccc(O[C@H]3C[C@H](N=C=S)C3)cc2)cc1F` [Example 51, 3-Fluoro-4′-((1R,3R)-3-isothiocyanatocyclobutoxy)-4-methoxy-1,1′-biphenyl], 0.01 to 0.1 µM; to `COc1cccc(-c2cc(Oc3ccccc3)ccc2COC2CN(C#N)C2)c1` [Example 89, 3-((3′-Methoxy-5-phenoxy-[1,1′-biphenyl]-2-yl)methoxy)azetidine-1-carbonitrile], 0.01 to 0.1 µM.
Take `COc1cccc(-c2ccc(CO[C@H]3C[C@@H](N=C=S)C3)cc2)c1` [Example 35, 4′-(((1S,3S)-3-isothiocyanatocyclobutoxy)methyl)-3-methoxy-1,1′-biphenyl]: the IC50 lay within 0.01 to 0.1 µM.
With `COc1ccc(-c2ccc(O[C@H]3C[C@@H](N=C=S)C3)cc2)cc1F` [Example 52, 3-Fluoro-4′-((1S,3S)-3-isothiocyanatocyclobutoxy)-4-methoxy-1,1′-biphenyl], the IC50 is 0.01 to 0.1 µM.
For the molecule `N#CN1CC(COCc2ccc(-c3ccccc3)cc2)C1` [Example 86, 3-(([1,1′-Biphenyl]-4-ylmethoxy)methyl)azetidine-1-carbonitrile], the IC50 was 0.01 to 0.1 µM.
On the same count and under the same terms, with `Cc1ccc(-c2ccc(CO[C@H]3C[C@@H](N=C=S)C3)cc2)cc1` [Example 29, 4-(((1S,3S)-3-Isothiocyanatocyclobutoxy)methyl)-4′-methyl-1,1′-biphenyl] the figure was 0.01 to 0.1 µM.
As to `COc1ccc(-c2ccc(CO[C@H]3C[C@@H](N=C=S)C3)c(F)c2)cc1F` [Example 33, 3,3′-Difluoro-4-(((1S,3S)-3-isothiocyanatocyclobutoxy)methyl)-4′-methoxy-1,1′-biphenyl], the IC50 was 0.01 to 0.1 µM.
`N#CN1CC(OCc2ccc(-c3ccc4c(c3)OCO4)cc2)(c2ccccc2)C1` [Example 97, 3-((4-(Benzo[d][1,3]dioxol-5-yl)benzyl)oxy)-3-phenylazetidine-1-carbonitrile]: the IC50 lay within 0.01 to 0.1 µM.
In turn, `COc1cccc(-c2ccc(COC3(c4ccccc4)CN(C#N)C3)cc2)c1` [Example 96, 3-((3′-Methoxy-[1,1′-biphenyl]-4-yl)methoxy)-3-phenylazetidine-1-carbonitrile] came in with an IC50 of 0.01 to 0.1 µM.
`S=C=NCCCCCCCCCCc1ccncc1` [Example 19, 4-(10-Isothiocyanatodecyl)pyridine] gave an IC50 of 0.01 to 0.1 µM.
In the case of `N#CN1CC(OCc2ccc(Oc3ccccc3)cc2-c2ccccc2)C1` [Example 87, 3-((5-Phenoxy-[1,1′-biphenyl]-2-yl)methoxy)azetidine-1-carbonitrile], the IC50 was 0.01 to 0.1 µM.
In turn, `N#CN1CC(OCc2ccc(-c3cccnc3)cc2)C1` [Example 72, 3-((4-(Pyridin-3-yl)benzyl)oxy)azetidine-1-carbonitrile] returned an IC50 of 0.01 to 0.1 µM.
Turning to `COc1cccc(-c2ccc(COC3CN(C#N)C3)c(C(F)(F)F)c2)c1` [Example 79, 3-((3′-Methoxy-3-(trifluoromethyl)-[1,1′-biphenyl]-4-yl)methoxy)azetidine-1-carbonitrile], the IC50 fell in the range of 0.01 to 0.1 µM.
In turn, `COc1ccccc1-c1cc(Oc2ccccc2)ccc1COC1CN(C#N)C1` [Example 88, 3-((2′-Methoxy-5-phenoxy-[1,1′-biphenyl]-2-yl)methoxy)azetidine-1-carbonitrile] had a concentration for half-maximal inhibition (IC50) of 0.01 to 0.1 µM.
With `COc1cccc(-c2ccc(COC3CN(C#N)C3)c(OC)c2)c1` [Example 80, 3-((3,3′-Dimethoxy-[1,1′-biphenyl]-4-yl)methoxy)azetidine-1-carbonitrile], the IC50 lay within 0.01 to 0.1 µM.
`N#CN1CC(OCc2ccc(-c3cccc(C(F)(F)F)c3)cc2)C1` [Example 70, 3-((3′-(Trifluoromethyl)-[1,1′-biphenyl]-4-yl)methoxy)azetidine-1-carbonitrile] registered an IC50 of 0.01 to 0.1 µM.
On the same count and under the same terms, to `CC(C)Oc1ccc(-c2ccc(CO[C@H]3C[C@@H](N=C=S)C3)c(F)c2)cc1F` [Example 37, 3,3′-Difluoro-4-isopropoxy-4′-(((1S,3S)-3-isothiocyanatocyclobutoxy)methyl)-1,1′-biphenyl] belongs 0.11 to 1 µM.
The same measure, in the same setting: with `COc1cccc(-c2ccc(COC3CN(C#N)C3)cc2)c1` [Example 67, 3-((3′-Methoxy-[1,1′-biphenyl]-4-yl)methoxy)azetidine-1-carbonitrile] the figure was 0.01 to 0.1 µM; with `COc1cccc(-c2ccc(COC3CN(C#N)C3)cc2)c1OC` [Example 69, 3-((2′,3′-Dimethoxy-[1,1′-biphenyl]-4-yl)methoxy)azetidine-1-carbonitrile], 0.01 to 0.1 µM; with `COc1ccc(OC)c(-c2ccc(COC3CN(C#N)C3)cc2)c1` [Example 68, 3-((2′,5′-Dimethoxy-[1,1′-biphenyl]-4-yl)methoxy)azetidine-1-carbonitrile], 0.01 to 0.1 µM.

The assay is the same for the next values; noted with them: read-out: NAAA Inhibition IC50 μM; purified hNAAA, PAMCA 5 μM, pH 4.5.
`FC(F)(F)c1cccc(-c2ccc(CO[C@H]3Cc4ccccc4[C@H]3N=C=S)cc2)c1` [Example 61, (1R,2S)-1-isothiocyanato-2-((3′-(trifluoromethyl)-[1,1′-biphenyl]-4-yl)methoxy)-2,3-dihydro-1H-indene]: the IC50 was more than 1 µM.
Turning to `Cc1noc(C)c1-c1ccc(COC2CC(N=C=S)C2)c(F)c1` [Example 45, 4-(3-Fluoro-4-(((1R,3R)-3-isothiocyanatocyclobutoxy)methyl)phenyl)-3,5-dimethylisoxazole], the IC50 was more than 1 µM.
Same read-out and setting: with `COc1ccc(-c2ccc(COC3CC(N=C=S)C3)nc2)cc1F` [Example 42, 5-(3-Fluoro-4-methoxyphenyl)-2-(((1R,3R)-3-isothiocyanatocyclobutoxy)methyl)pyridine] the figure was 0.01 to 0.1 µM; with `COc1cccc(-c2ccc(COC3CN(CC#N)C3)cc2)c1` [Example 109, 2-(3-((3′-Methoxy-[1,1′-biphenyl]-4-yl)methoxy)azetidin-1-yl)acetonitrile], more than 1 µM.
Turning to `N#Cc1ncc(OCCOCCOCc2ccccc2)cn1` [Example 117, 5-(2-(2-(benzyloxy)ethoxy)ethoxy)pyrimidine-2-carbonitrile], the IC50 was more than 1 µM.
In the case of `S=C=NCc1ccc(CN2CCOCC2)cc1` [Example 12, 4-(Morpholinomethyl)benzylisothiocyanate], the IC50 was more than 1 µM.
Still for that read-out and setting: to `N#CN1CCC(Oc2ccc(Br)cc2)CC1` [Example 106, 4-(4-Bromophenoxy)piperidine-1-carbonitrile] belongs more than 1 µM; to `S=C=NCCCCc1ccccc1` [Example 1, (4-isothiocyanatobutyl)benzene], more than 1 µM.
For the molecule `CCCCCCCCCCCCCCCC(=O)NCCN=C=S` [Example 6, N-(2-isothiocyanatoethyl)palmitamide], the IC50 is more than 1 µM.
On the same count and under the same terms, with `COc1ccc(-c2ccc(CO[C@@H]3Cc4ccccc4[C@@H]3N=C=S)cc2)cc1F` [Example 62, (1S,2R)-2-((3′-fluoro-4′-methoxy-[1,1′-biphenyl]-4-yl)methoxy)-1-isothiocyanato-2,3-dihydro-1H-indene] the figure was more than 1 µM.
With `S=C=N[C@H]1C[C@H](OCc2ccc(-c3ccccc3)cc2)C1` [Example 30, 4-(((1R,3R)-3-isothiocyanatocyclobutoxy)methyl)-1,1′-biphenyl], the IC50 was more than 1 µM.
`Cn1cc(-c2ccc(COC3CC(N=C=S)C3)c(F)c2)cn1` [Example 46, 4-(3-Fluoro-4-(((1R,3R)-3-isothiocyanatocyclobutoxy)methyl)phenyl)-1-methyl-1H-pyrazole]: the IC50 is 0.11 to 1 µM.
Take `S=C=NCCN1CCC(Cc2ccccc2)CC1` [Example 11, 4-Benzyl-1-(2-isothiocyanatoethyl)piperidine]: the IC50 was more than 1 µM.
Take `S=C=NCc1ccc(N2CCOCC2)cc1` [Example 10, 4-(4-(Isothiocyanatomethyl)phenyl)morpholine]: the half-maximal inhibitory concentration (IC50) is more than 1 µM.
In the case of `COc1ccc(CCCCCCCCCCN=C=S)cc1` [Example 17, 1-(10-Isothiocyanatodecyl)-4-methoxybenzene], the IC50 was more than 1 µM.
Same read-out and setting: with `N#C[C@H]1C[C@H](OCc2ccc(-c3ccccc3)cc2)C1` [Example 107, (1R,3R)-3-([1,1′-Biphenyl]-4-ylmethoxy)cyclobutane-1-carbonitrile] the figure was more than 1 µM; with `N#Cc1ncc(OCCCCCc2ccccc2)cn1` [Example 116, 5-((5-phenylpentyl)oxy)pyrimidine-2-carbonitrile], more than 1 µM.

A word on the IC50: it is the point on the concentration scale where inhibition reaches its midpoint.
